Counter-ions that a name gives are not always drawn.
molecular target: T1, human NCX1 (Homo sapiens, UniProt P32418); test: NCX1 inhibition, reverse mode (Ca2+ influx into cells), FLIPR Fluo-4 assay; type: cell-based; details: NCX1 reverse mode; at 30 μM; read-out: Inhibition in % at 30 μM (NCX1rv; IC50 value not determined)
T1 construct: expressed in transfected cells
Method in brief: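 Max−min Fluo-4 fluorescence (520 nm, FLIPR, 240 points at 2 s) after 20 µM final gramicidin, which drives Na+ loading and reverse-mode Ca2+ entry, gave % inhibition and IC50. Test compound was preincubated 45 min at 16 °C with Fluo-4-loaded CHO cells stably expressing human NCX1, in pH 7.4 buffer containing 3.5 mM CaCl2 and probenecid.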

Row | inhibition at 30 µM [%] | Compound
1 | 38 | CC(C)c1ccc(NC(=O)c2cnc(Oc3ccc4c(c3)CC[C@@H](c3ccccc3)O4)s2)cc1 [compound 280]

same assay, conditions: inhibition of NCX1 in reverse mode (Ca2+ influx into cells); read-out: NCX1rv IC50

Row | IC50 [nM] | Compound
2 | 300 | O=C(NCc1ccncc1)c1sc(Oc2ccc3c(c2)CCC(c2ccccc2)O3)nc1C(F)(F)F (centres unmarked) [compound 30, hydrochloride]
3 | 800 | CC(NCc1cnc(Oc2ccc3c(c2)CCC(c2ccccc2)O3)s1)C(C)(C)C (centres unmarked) [compound 105]
4 | 800 | Cc1cc(NCc2cnc(Oc3ccc4c(c3)CCC(c3ccccc3)O4)s2)on1 (centres unmarked) [compound 111]
5 | 200 | O=C(NCCc1ccncc1)c1cnc(Oc2ccc3c(c2)CCC(c2ccccc2)O3)s1 (centres unmarked) [compound 61, hydrochloride]
6 | 100 | c1ccc(C2CCc3cc(Oc4ncc(CNCc5ccno5)s4)ccc3O2)cc1 (centres unmarked) [compound 159]
7 | 300 | CCn1nccc1C(=O)NCc1cnc(Oc2ccc3c(c2)CCC(c2ccccc2)O3)s1 (centres unmarked) [compound 70]
8 | 1200 | CCC(C)[C@H](NC(=O)c1cnc(Oc2ccc3c(c2)CC[C@@H](c2ccccc2)O3)s1)C(=O)OC (some centres unmarked) [compound 183]
9 | 700 | CN1CC(=O)N(CC(=O)NCc2cnc(Oc3ccc4c(c3)CCC(c3ccccc3)O4)s2)C1=O (centres unmarked) [compound 164]
10 | 12100 | O=C(N[C@@H](Cc1ccccc1)C(=O)O)c1cnc(Oc2ccc3c(c2)CCC(c2cccnc2)O3)s1 (some centres unmarked) [compound 271]
11 | 8700 | Cc1cccc(C)c1C1CCc2cc(Oc3ncc(C(=O)N(C)C)s3)ccc2O1 (centres unmarked) [compound 338]
12 | 800 | OCCN(CCO)Cc1cnc(Oc2ccc3c(c2)CCC(c2ccccc2)O3)s1 (centres unmarked) [compound 319]
13 | 1900 | CC1Cc2cc(Oc3ncc(C(=O)NCc4ccno4)s3)ccc2OC1c1ccccc1 (centres unmarked) [compound 363]
14 | 200 | Cc1cc(CNCc2cnc(Oc3ccc4c(c3)CCC(c3ccccc3)O4)s2)no1 (centres unmarked) [compound 140]
15 | 4800 | CCOC(=O)[C@H](Cc1ccccc1)NC(=O)c1cnc(Oc2ccc3c(c2)CC[C@@H](c2ccccc2)O3)s1 [compound 219]
16 | 700 | O=C(NCc1ccnc(Cl)c1)c1cnc(Oc2ccc3c(c2)CCC(c2cncc(F)c2)O3)s1 (centres unmarked) [compound 247]
17 | 400 | CN1CCN(C(=O)c2cnc(Oc3ccc4c(c3)CCC(c3ccccc3)O4)s2)CC1 (centres unmarked) [compound 313]
18 | 1000 | Cc1n[nH]c(C)c1C(C)NC(=O)c1cnc(Oc2ccc3c(c2)CCC(c2ccccc2)O3)s1 (centres unmarked) [compound 31]
19 | 23800 | Cc1n[nH]c(C)c1S(=O)(=O)NCc1cnc(Oc2ccc3c(c2)CCC(c2ccccc2)O3)s1 (centres unmarked) [compound 131]
20 | 300 | CC[C@@H](NC(=O)c1cnc(Oc2ccc3c(c2)CCC(c2ccccc2)O3)s1)c1ccc(OC)nc1 (some centres unmarked) [compound 27]
21 | 200 | O=C(NCc1ccncc1)c1cnc(Oc2ccc3c(c2)CC[C@H](c2ccccc2)O3)s1 [compound 37]
22 | 400 | NC(=O)c1cnc(Oc2ccc3c(c2)CCC(c2ccccc2)O3)s1 (centres unmarked) [compound 339]
23 | 960 | CC1Cc2cc(Oc3ncc(C(=O)NCCO)s3)ccc2OC1c1ccccc1 (centres unmarked) [compound 364]
24 | 300 | Cc1nc(Oc2ccc3c(c2)CC[C@@H](c2ccccc2)O3)sc1C(=O)NCc1ccncc1 [compound 98, hydrochloride]
25 | 200 | CCOC(=O)CNC(=O)c1cnc(Oc2ccc3c(c2)CCC(c2ccccc2)O3)s1 (centres unmarked) [compound 308]

Row | IC50 [nM] | Compound
26 | 300 | CCn1cc(C(=O)NCc2cnc(Oc3ccc4c(c3)CCC(c3ccccc3)O4)s2)cn1 (centres unmarked) [compound 72]
27 | 300 | c1ccc(C2CCc3cc(Oc4ncc(CN5CCOCC5)s4)ccc3O2)cc1 (centres unmarked) [compound 117]
28 | 400 | O=C(c1cnc(Oc2ccc3c(c2)CC[C@@H](c2ccccc2)O3)s1)N1CCCCC1 [compound 288]
29 | 600 | O=C(c1cnc(Oc2ccc3c(c2)CC[C@@H](c2ccccc2)O3)s1)N1CC[C@H]2CNC[C@H]21 [compound 283, hydrochloride]
30 | 100 | O=C(c1cnc(Oc2ccc3c(c2)CCC(c2ccccc2)O3)s1)N1CCOCC1 (centres unmarked) [compound 314]
31 | 400 | Cc1cc(C(=O)NCc2cnc(Oc3ccc4c(c3)CCC(c3ccccc3)O4)s2)ccn1 (centres unmarked) [compound 82]
32 | 100 | O=C(NCc1ccncc1)c1cnc(Oc2ccc3c(c2)CC[C@@H](c2ccccc2)O3)s1 [compound 36]
33 | 5300 | Cc1cc(C(=O)NCc2cnc(Oc3ccc4c(c3)CCC(c3ccccc3)O4)s2)nc(C)n1 (centres unmarked) [compound 91]
34 | 400 | Cc1cc(CNC(=O)c2cnc(Oc3ccc4c(c3)CC[C@@H](c3ccccc3)O4)s2)ccn1 [compound 274, hydrochloride]
35 | 300 | Cc1nc(C(=O)NCc2cnc(Oc3ccc4c(c3)CCC(c3ccccc3)O4)s2)cs1 (centres unmarked) [compound 73]
36 | 300 | Cc1nc(C)c(C(=O)NCc2cnc(Oc3ccc4c(c3)CCC(c3ccccc3)O4)s2)o1 (centres unmarked) [compound 78]
37 | 400 | Cc1cc(CNCc2cnc(Oc3ccc4c(c3)CCC(c3ccccc3)O4)s2)n(C)n1 (centres unmarked) [compound 141]
38 | 400 | O=C(NCc1cnc(Oc2ccc3c(c2)CCC(c2ccccc2)O3)s1)c1ncccn1 (centres unmarked) [compound 87]
39 | 1000 | Cc1ccccc1C1CCc2cc(Oc3ncc(C(=O)NCc4ccnc(Cl)c4)s3)ccc2O1 (centres unmarked) [compound 215]
40 | 800 | CC(Cc1ccccc1)(NC(=O)c1cnc(Oc2ccc3c(c2)CC[C@@H](c2ccccc2)O3)s1)C(=O)O (some centres unmarked) [compound 233]
41 | 600 | Cc1c(CNC(=O)c2cnc(Oc3ccc4c(c3)CC[C@H](c3ccccc3)O4)s2)cnn1C [compound 63]
42 | 100 | CC(C)CNC(=O)c1cnc(Oc2ccc3c(c2)CCC(c2ccccc2)O3)s1 (centres unmarked) [compound 318]
43 | 1300 | COC(=O)[C@@H]1CC(C)(C)CN1C(=O)c1cnc(Oc2ccc3c(c2)CC[C@@H](c2ccccc2)O3)s1 [compound 223]
44 | 100 | Cc1nccc(CNC(=O)c2cnc(Oc3ccc4c(c3)CCC(c3ccccc3)O4)s2)n1 (centres unmarked) [compound 21]
45 | 100 | OCCNCc1cnc(Oc2ccc3c(c2)CC[C@@H](c2ccccc2)O3)s1 [compound 266]
46 | 1100 | Cc1ncc(S(=O)(=O)NCc2cnc(Oc3ccc4c(c3)CCC(c3ccccc3)O4)s2)n1C (centres unmarked) [compound 127]
47 | 1500 | CCn1nccc1CNC(=O)c1cnc(Oc2ccc3c(c2)CCC(c2cccc(OC)c2F)O3)s1 (centres unmarked) [compound 362]
48 | 3100 | CC[C@H](C)[C@H](NC(=O)c1cnc(Oc2ccc3c(c2)CCC(c2cccnc2)O3)s1)C(=O)OC (some centres unmarked) [compound 261]
49 | 600 | CC(C)C[C@H](NC(=O)c1cnc(Oc2ccc3c(c2)CC[C@@H](c2ccccc2)O3)s1)C(=O)O [compound 241]

Row | IC50 [nM] | Compound
50 | 400 | CC(C)[C@@H](CO)NC(=O)c1cnc(Oc2ccc3c(c2)CC[C@@H](c2ccccc2)O3)s1 [compound 203]
51 | 800 | O=C(NCc1cnc(Oc2ccc3c(c2)CCC(c2ccccc2)O3)s1)c1ccnc(Cl)c1 (centres unmarked) [compound 68]
52 | 600 | CC(C)(NC(=O)c1cnc(Oc2ccc3c(c2)CC[C@@H](c2ccccc2)O3)s1)C(=O)O [compound 193]
53 | 200 | O=C(NCc1ccno1)c1cnc(Oc2ccc3c(c2)CCC(c2cc(F)ccc2F)O3)s1 (centres unmarked) [compound 217]
54 | 300 | CCC(C)(C)NCc1cnc(Oc2ccc3c(c2)CCC(c2ccccc2)O3)s1 (centres unmarked) [compound 112]
55 | 300 | Cc1cc(CNCc2cnc(Oc3ccc4c(c3)CCC(c3ccccc3)O4)s2)nn1C (centres unmarked) [compound 147]
56 | 1100 | O=C(Cn1cccn1)NCc1cnc(Oc2ccc3c(c2)CCC(c2ccccc2)O3)s1 (centres unmarked) [compound 92]
57 | 1800 | COc1cccc(C2CCc3cc(Oc4ncc(C(=O)NCCO)s4)ccc3O2)c1F (centres unmarked) [compound 360]
58 | 100 | O=C(c1cnc(Oc2ccc3c(c2)CCC(c2ccccc2)O3)s1)N(CCO)CCO (centres unmarked) [compound 312]
59 | 600 | CCCNC(=O)c1cnc(Oc2ccc3c(c2)CC[C@@H](c2ccccc2)O3)s1 [compound 281]
60 | 600 | O=C(c1cnc(Oc2ccc3c(c2)CCC(c2ccccc2)O3)s1)N1CC[C@@H](O)C1 (some centres unmarked) [compound 298]
61 | 600 | Cc1ccccc1C1CCc2cc(Oc3nc(C)c(C(=O)NCCN4CCNC4=O)s3)ccc2O1 (centres unmarked) [compound 333]
62 | 300 | Cn1nccc1C(=O)NCc1cnc(Oc2ccc3c(c2)CCC(c2ccccc2)O3)s1 (centres unmarked) [compound 86]
63 | 1900 | N[C@@H](Cc1ccccc1)C(=O)NCc1cnc(Oc2ccc3c(c2)CC[C@@H](c2ccccc2)O3)s1 [compound 304]
64 | 500 | CC(C)(C)OC(=O)CNC(=O)c1cnc(Oc2ccc3c(c2)CCC(c2ccccc2)O3)s1 (centres unmarked) [compound 306]
65 | 400 | c1ccc(C2CCc3cc(Oc4ncc(CNCc5nnc6ccccn56)s4)ccc3O2)cc1 (centres unmarked) [compound 156]
66 | 1300 | O=C(NCc1ccnc(Cl)c1)c1cnc(Oc2ccc3c(c2)CCC(c2ccc(Cl)nc2)O3)s1 (centres unmarked) [compound 278, hydrochloride]
67 | 400 | Cn1nccc1CNC(=O)c1cnc(Oc2ccc3c(c2)CCC(c2ccccc2)O3)s1 (centres unmarked) [compound 5]
68 | 200 | Cn1nccc1CNCc1cnc(Oc2ccc3c(c2)CCC(c2ccccc2)O3)s1 (centres unmarked) [compound 146]
69 | 2100 | O=C(NCc1cnc(Oc2ccc3c(c2)CCC(c2ccccc2)O3)s1)c1ccnc(N2CCOCC2)c1 (centres unmarked) [compound 83]
70 | 2600 | O=C(NCc1ccnc(Cl)c1)c1cnc(Oc2ccc3c(c2)CCC(c2cnccn2)O3)s1 (centres unmarked) [compound 310]
71 | 400 | COC(=O)[C@@H](C)NC(=O)c1cnc(Oc2ccc3c(c2)CC[C@@H](c2ccccc2)O3)s1 [compound 184]
72 | 1100 | CCc1ccccc1C1CCc2cc(Oc3ncc(C(=O)NCCN4CCNC4=O)s3)ccc2O1 (centres unmarked) [compound 322]
73 | 400 | CO[C@H]1CNC[C@@H]1NC(=O)c1cnc(Oc2ccc3c(c2)CC[C@@H](c2ccccc2)O3)s1 [compound 254]

Row | Compound | IC50 [nM]
74 | 2-[2-(2,6-Dimethyl-phenyl)-chroman-6-yloxy]-thiazole-5-carboxylic acid [2-(2-oxo-imidazolidin-1-yl)-ethyl]-amide [compound 347] | 1500

— patent publication US20140243292A1, “SUBSITUTED 2-(CHROMAN-6-YLOXYL)-THIAZOLES AND THEIR USE AS PHARMACEUTICALS” (Sanofi, priority 2011, published 2014)
